For one molecule, IC50 results are on record in patent US20240360145A1, “PYRIMIDINE-2,4-DIAMINE DERIVATIVES AS WELL AS PREPARATION METHOD THEREFOR AND USE THEREOF” (LISEN THERAPEUTICS, INC., priority 2022, published 2024).

Common to all, as to assay type: cell-based
For assay [1], the system named is PC-3 (prostate cancer). The experiment in a line: Cell viability IC50 (CellTiter-Glo), PC-3. To be noted: PC-3, 72 hours. As for the experimental part:
(§1) The cancer cell lines were cultured to the logarithmic growth phase according to conventional culture methods, and the cells were inoculated into a 384-well plate at a density of 2,000 cells/well in a volume of 40 μl/well. The concentrations of added compounds were: […], 1.67 μM, 0.56 μM, 0.19 μM, 0.062 μM, 0.021 μM, 0.0069 μM, 0.0023 μM, 0.00076 μM, and 0 μM. After 72 hours, cell viability was detected using the CellTiter-Glo™ Detection Kit.

Assay [2] has as its system Cal-62 (thyroid cancer). Put plainly: Cell viability IC50 (CellTiter-Glo), Cal-62. To be noted: Homo sapiens, Cal-62, 72 hours. The procedure:
as §1

Assay [3] concerns primary cells from pleural effusion of patients with small cell lung cancer. Put plainly: Cell viability IC50 (CCK-8), summary over primary cells from pleural effusion of patients with small cell lung cancer. To be noted: Homo sapiens; range over primary cells of patients with small cell lung cancer (Table 4). The procedure:
(§2) (1) Primary cells from lung cancer pleural effusion within 5 generations were cultured to the logarithmic growth phase. When the confluence reached about 90%, the cells were digested with 0.25% trypsin, and complete culture medium was added to collect the cells. After centrifugation at room temperature, the supernatant was discarded, and the cell precipitate was resuspended with fresh complete culture medium. After counting, the cells were placed at room temperature for later use. The cells were inoculated into a 384-well plate at a density of 2000 cells/well with a volume of 40 μl/well. The wells at the outermost circle of the plate were not inoculated with cells, and instead, added with sterile water to reduce evaporation of the culture medium.
(2) After overnight culture of the cells, the medium was discarded, and a fresh medium containing different concentrations of compounds was added at 200 μl/well. The dilution method of the compound was as follows: first the compound with the highest concentration of 10 μM was prepared, and then the compound was diluted for 3 times in sequence. […] At the same time, a blank control group was set up, in which only an equal volume of culture medium was added without adding cells. […]
(4) The light absorbance value at 450 nm was read using a microplate reader, and the IC50 was calculated according to the absorbance value. […]

The subject of assay [4] is LT015 primary cells. Put plainly: Cell viability IC50 (CCK-8), primary cells LT015 from small cell lung cancer bronchoscopic biopsy. The following applies: LT015, CCK-8. As for the experimental part:
(1) The tissue blocks obtained from the tumor patients were transferred from the preservation solution to the pre-cooled HBSS buffer containing antibiotics, and the tissue blocks were washed for three times with the pre-cooled HBSS buffer.
(2) Tissue was sheared on ice with sterile surgical instruments until no obvious tissue blocks are visible to the naked eye, the tissue fluid was collected into a 15 ml centrifuge tube, and this process takes about 5 to 10 minutes.
(3) Digestive enzymes (collagenase I, collagenase IV and neutral protease being mixed in a ratio of 1:1:1, a concentration of stock solution was 10 mg/ml, diluted with PBS buffer or HBSS buffer, and the use concentration was 1 mg/ml) were added to the centrifuge tube, and after mixing well by pipetting, the centrifuge tube was placed in a 37° C. constant temperature incubator for 1 to 2 hours.
(4) High-glucose medium was added to the centrifuge tube to stop digestion. After mixing well, the cell precipitate was collected by centrifugation, and resuspended with MBM medium (Advanced DMEM-F12+20 ng/ml bFGF+50 ng/ml EGF+1% ITS-X+2% B27+10 μMY-27632+1% PS). The cell suspension was placed in a Matrigel-coated 24-well plate and cultured for 5 to 7 days. When the cell density in the well plate reaches 80-90%, the cells were sub-cultured into a 6 cm cell culture dish, and when they grew to a density of 80% to 90%, the cells were cryopreserved for preservation.
as §2
(2) After overnight culture of the cells, the medium was discarded, and a fresh medium containing different concentrations of compounds was added at 200 μl/well. The dilution method of the compound was as follows: first the compound with the highest concentration of 10 μM was prepared, and then the compound was diluted for 3 times in sequence. […] At the same time, a blank control group was set up, in which only an equal volume of culture medium was added without adding cells. Five replicate wells were set up for each group. The cells were placed in the incubator for further culture.
(3) After 72 hours, 8 μl of CCK-8 solution, which was double-diluted with 10 mM PBS, was added to each well, and the cells were shaken and placed in an incubator at 37° C. for further culture for 2 hours.
(4) The light absorbance value at 450 nm was read using a microplate reader, and the IC50 was calculated according to the absorbance value. The calculation method was the same as above.
(1) Sample information: PE039, PE052, and PE062 were all primary cell samples from pleural effusion of patients with small cell lung cancer, and LT015 was a primary cell sample from bronchoscopic biopsy of a patient with small cell lung cancer.
(2) CCK-8 detection was used to detect the IC50 values of different medicaments (compounds).

Assay [5] relates to MDA-MB-231 (breast cancer). Put plainly: Cell viability IC50 (CellTiter-Glo), MDA-MB-231. To be noted: Homo sapiens, MDA-MB-231, 72 hours. As for the experimental part:
as §1

In assay [6] the test system is HCT116 (colon cancer). Put plainly: Cell viability IC50 (CellTiter-Glo), HCT116. To be noted: Homo sapiens, HCT-116, HCT116, 72 hours. The procedure: as §1
Assay [7] concerns MCF-7 (breast cancer). Put plainly: Cell viability IC50 (CellTiter-Glo), MCF-7. The following applies: Homo sapiens, MCF7, MCF-7, 72 hours. The procedure: as §1
Assay [8] relates to NCI-H146 cells. Put plainly: Cell viability IC50 (CCK-8), small cell lung cancer cell line H146. The following applies: Homo sapiens, NCI-H146; H146, CCK-8. As for the experimental part: (§3) Small cell lung cancer cell lines DMS114, NCI-H1688, NCI-H82, NCI-H146, and NCI-H446 cells were cultured in RPMI-1640 medium containing 10% fetal bovine serum and 1% penicillin-streptomycin. All the cells were cultured in a constant temperature incubator containing 5% CO2 at 37° C.
(§4) Small cell lung cancer is a highly heterogeneous malignant tumor, and its clinical treatment is mainly based on traditional chemotherapy (mainly platinum medicaments and etoposide). In order to study the anti-tumor activity of the compounds of the present disclosure in small cell lung cancer, the CCK-8 method was used to investigate the cell viability IC50 of compound 8 for five small cell lung cancer cell lines.

The subject of assay [9] is Hep3B (liver cancer). Put plainly: Cell viability IC50 (CellTiter-Glo), Hep3B. To be noted: Homo sapiens, 72 hours. As for the experimental part:
as §1

For assay [10], the system named is LN-18 (glioma). Put plainly: Cell viability IC50 (CellTiter-Glo), LN-18. To be noted: Homo sapiens, LN-18, 72 hours. The procedure:
as §1

Assay [11] relates to Hela (cervical cancer). The experiment in a line: Cell viability IC50 (CellTiter-Glo), Hela. To be noted: Homo sapiens, 72 hours. As for the experimental part: as §1
For assay [12], the system named is NCI-H1688 cells. Put plainly: Cell viability IC50 (CCK-8), small cell lung cancer cell line H1688. The following applies: NCI-H1688; H1688, CCK-8. The procedure: as §3, §4

Consider `CN1CC2CCC(C1)N2Cc1ccc(Nc2ncc(Cl)c(Nc3ccccc3S(=O)(=O)N(C)C)n2)cc1` [Compound 8, 2-((5-chloro-2-((4-((3-methyl-3,8-diazabicyclo[3.2.1]octan-8-yl)methyl)phenyl)amino)pyrimidin-4-yl)amino)-N,N-dimethylbenzenesulfonamide], for which the IC50 in [1] was above 3000 nM; in assay [2], 21.9 nM; in assay [3] it was 2.7 to 59.9 nM; in [4] it was 6.11 nM; in assay [5], 49.9 nM; in [6] it was 9 nM. Also, the concentration for half-maximal inhibition (IC50) in [7] was 52.8 nM; in [8], 9.92 nM; in assay [9], 185 nM; in assay [10], 7.8 nM; in assay [11] it was 123 nM; in assay [12] it was 5.01 nM.
